Assay results from patent US20110212466A1, “Thiol-Modified Surface Immobilization Article And Method” (priority 2009, published 2011).

Test system: carbonic anhydrase (CAII)
Assay: furosemide binding on immobilized CAII, Epic biosensor (Example 3)
Conditions: cystine in combination with glycine
Protocol: Step 3. Binding of protein inhibitor: The plate was equilibrated at ambient (25° C.) temperature for about 30 min before rinsing with PBS (on Biomek, following standard rinsing protocol). The plate was centrifuged and soaked in 0.1% DMSO in PBS for about 4 h at ambient temperature.
The plate was then read in the Epic® instrument for 20 min.

- binding: over 10 pm
Compound: NS(=O)(=O)c1cc(C(=O)O)c(NCc2ccco2)cc1Cl [furosemide]
